From US6887883B2, “Use of natural chrysanthone compounds having antiangiogenic activity” (Sigma-Tau Industrie Farmaceutiche Riunite S.p.A., priority 2000, dated 2005)
Where two headings read alike, the source gives them in different places.

What was measured:
Type in all cases: cell-based
Mes-Sa line = assay: SRB cytotoxicity test on human tumour line Mes-Sa
[1] = test system: Bovine microvascular endothelial cells (BMEC); assay: Sulphorhodamine B (SRB) cytotoxicity test on BMEC; conditions: for IC50: concentration corresponding to 50% of cytotoxic activity, read-out: Cytototoxicity on BMEC IC50; for Cytototoxicity on BMEC IC0: maximum non-cytotoxic concentration
Experimental: The evaluation of the intrinsic toxicity of chrysanthone A was done by comparing it with suramin using the Sulphorhodamine B (SRB) cytotoxicity test described here below.
Bovine microvascular endothelial cells (BMEC) were seeded, at a density of 3000 cells/well, on 96-well microtiter plates, in normal culture medium (200 μl/well). On the next day the study compounds were added to the wells in scalar concentrations. On the third day after seeding the medium was removed and three washings with PBS were performed. At the end of the washings, 200 μl of culture medium were added to each well and the plates were placed in an incubator at 37° C., 5% CO2 for the next 48 hours. At the end of this incubation period, the medium was removed and the cells were treated cold for 1 hour with a solution of 15% trichloroacetic acid (TCA). The wells were washed three times with distilled H2O by immersion of the plate and removal by overturning. 200 μl/well of 0.4% SRB in 1% acetic acid were added to the plates and incubated for 30 min. The wells were washed three times with 1% acetic acid, and lastly 200 μl/well of Tris 10 mM were added.
The staining of the well was quantified by spectrophotometric readout at a wavelength of 540 nm. Comparison of the values obtained in the wells containing the study compound and the controls made it possible to determine the IC50 and IC0 of the compound according to the invention, defined respectively as the concentration corresponding to 50% of cytotoxic activity (IC50) and the maximum non-cytotoxic concentration (IC0).
(§1) This test was conducted using the procedure described in Example 1.

MCF-7 line = assay: SRB cytotoxicity test on human tumour line MCF-7; conditions: MCF7, MCF-7 human tumour line
BMEC endothelial cells = assay: Chemotaxis test using the Boyden chamber (BMEC migration towards bovine serum)
Text: This test is the first screening assay for compounds with potential angiogenesis inhibiting or facilitating activity (Glaser B. M. et al, Nature, 1980; 288:483-4).
Chrysanthone A, one of the compounds to which the invention relates, was subjected to a chemotaxis test using the Boyden chamber (Werner F., Goodwin R. H. and Leonard E. J., Journal of Immunology Methods, 1980; 33:239-247).
The realisation of this in-vitro assay has entailed the development of techniques for the isolation and culture of bovine endothelial cells of both the aorta (BAEC) and the adrenal marrow (BMEC) as well as the identification of suitable reference compounds. One of the advantages of the use of the Boyden chamber for the chemotaxis test is the possibility of obtaining quantitative data. The Boyden chamber consists in an upper and a lower well separated by a polycarbonate filter with 8 μm pores. A solution containing the chemoattractant is placed in the lower well, while the cells are inserted in the upper well. After a period of incubation, the cells which have migrated across the filter in response to the chemotactic stimulus are counted on the undersurface of the membrane.
In the chemotaxis test, the chemoattractant selected was bovine serum (1% in DMEM culture medium). The BMEC endothelial cells were resuspended in DMEM with 1% bovine serum albumin (BSA) and analysed in this test for 4 hours. The chemotaxis was quantified by direct cell count under the optical microscope. The migration percentages presented in the chemotaxis table expressed as “% migration” were calculated according to the formula: (T−C/C)×100 where T=mean number (n^o) of cells migrating in the test sample, and C=mean number of cells migrating in the control.
A control consisting of cells not treated with the study compound, migrating towards the serum, was included in every chemotaxis experiment.
The mean number of cells migrating refers to the readings of 5 microscopic fields/well in 4 independent chemotaxis wells per sample.
Normally, suramin is used as the reference compound in chemotaxis tests.
as §1

LoVo line = assay: SRB cytotoxicity test on human tumour line LoVo
LoVo-Dx line = assay: SRB cytotoxicity test on human tumour line LoVo-Dx
[2] = Bos taurus, Endothelial cell, compound at its IC0 (chrysanthone A 0.4 μM, two independent experiments; chrysanthone C 10 μM)

SMILES | IC50 (Mes-Sa line) [µM] | IC50 ([1]; listed as chrysanthone A) [µM] | IC50 [1] [µM] | Cytototoxicity on BMEC IC0 [1] [µM] | IC50 (MCF-7 line) [µM] | inhibition at 0.4 µM (BMEC endothelial cells; [2]) [%] | inhibition of BMEC migration (BMEC endothelial cells; compound at its IC0 (chrysanthone A 0.4 μM, two independent experiments; chrysanthone C 10 μM)) | IC50 (LoVo line) [µM] | IC50 (LoVo-Dx line) [µM] | IC50 ([1]; Bos taurus, Endothelial cell) [µM] | inhibition at 10 µM (BMEC endothelial cells; [2]) [%] | % Migration IC0 (BMEC endothelial cells; 1% bovine serum chemoattractant, 4 hours, compound at its IC0 (concentration printed in cell), (T−C/C)×100 vs untreated control) [μM = −58%]
CO[C@@H]1CC(=O)c2c(cc3cc(C)ncc3c2O)[C@@H]1O [Chrysanthone A] | 7.8 | 1.5 | 35 | 0.4 | 11.6 | 44 | 52%±2.8 | 15.8 | 80 | – | – | –
CO[C@@H]1CC(=O)c2c(cc3c(c2O)COC(C)(O)C3)[C@@H]1O (stereo partly drawn) [Chrysanthone C] | – | – | – | 10 | – | – | – | – | – | 35 | 54 | –
Cc1ccc(C(=O)Nc2ccc(S(=O)(=O)O)c3cc(S(=O)(=O)O)cc(S(=O)(=O)O)c23)cc1NC(=O)c1cccc(NC(=O)Nc2cccc(C(=O)Nc3cc(C(=O)Nc4ccc(S(=O)(=O)O)c5cc(S(=O)(=O)O)cc(S(=O)(=O)O)c45)ccc3C)c2)c1 [Suramin, reference compound] | – | – | – | 100 | – | – | – | – | – | > 500 | – | 100
